What all share (type): cell-based, human
Assay [1] relates to enzalutamide resistant PCa cell lines. Kind of assay: Enzalutamide resistant PCa cells: immunoblot and colony formation. How it is done:
Prostate parental cell lines used in this study were obtained from ATCC, LNCaP-AR cells were a gift from Dr. Charles Sawyers (Memorial Sloan-Kettering Cancer Center, New York, NY), and LNCaP AR-KO cells were a gift from Dr. Dean Tang (Roswell Park Cancer Institute, Buffalo, NY). LNCaP, LNCaP-AR, 22RV1, LAPC4, DU145, PC3, and LNCaP AR-KO prostate cancer cell lines were grown in RPMI 1640 (Gibco, 11875093), and VCaP prostate cancer cell line was grown in DMEM with Glutamax (Gibco, 21013024). The medium was supplemented with 10% Fetal Bovine Serum (FBS) (HYC, SH30910.03) and 1% Penicillin Streptomycin Solution (Invitrogen, 15140122), hereto referred to as “complete media.” The immortalized benign prostate cell line RWPE-1 was grown in keratinocyte media with supplements (Thermo Fisher Scientific, 17005042). LNCaP-AR and VCaP enzalutamide-resistant cell lines were derived from enzalutamide-resistant PCa tumor xenograft as described previously. LNCaP and LAPC4 enzalutamide-resistant cell lines were generated by culturing the cells in presence of 20 μM enzalutamide for 3-4 months in vitro. Polyclonal pools of enzalutamide-resistant cells were cultured and maintained in media containing enzalutamide throughout. All experiments for enzalutamide resistant pools were done in presence of enzalutamide throughout the remainder of all experiments with these cells. The cell lines were tested negative for mycoplasma contamination and maintained in a humidified incubator at 37° C. and 5% CO2.
For the long-term colony formation assay, 10,000-50,000 cells/well in six-well plates (n=3) were seeded and treated with the required drugs/compounds or vehicle for 14 days. Media was refreshed every 4-5 days. Colonies were fixed and stained using 0.5% (w/v) crystal violet (Sigma, C0775) in 20% (v/v) methanol for 30 min, washed with distilled deionized water, and air-dried. To quantify staining, we washed the stained wells with 500 μL 10% acetic acid and using colorimetric assays determined the absorbance at 590 nm using a spectrophotometer (Synergy HT, BioTek Instruments, Vermont-USA).
Cell lysates were prepared with RIPA buffer (Boston Bioproducts, BP-115DG)-10 mM Tris-HCl pH 7.5, 1 mM EDTA, 400 mM NaCl, 0.5% NP-40 and 1 mM DTT, supplemented with protease inhibitor cocktail (Pierce, A32965) and phosphatase inhibitor (Thermo, 1861280). For immunoblotting 200 μg total protein extract was boiled in sample buffer and 15-25 μg aliquots were separated by SDS-PAGE and transferred onto Polyvinylidene Difluoride membrane (GE Healthcare, IPVH00010). The membrane was incubated for one hour in blocking buffer [Tris-buffered saline, 0.1% Tween (TBS-T), 5% nonfat dry milk followed by overnight incubation on a rocker at 4° C. with the primary antibody. […]

A further assay has as its system AR target genes. The assay is described as follows: qRT-PCR of DHT-induced AR target gene expression. The conditions noted are these: LNCaP and VCaP, 100 nM THZ1. How it is done: For AR signaling stimulation experiments, cells were plated in complete media at required confluency. After 24 h cells were washed with DPBS and cultured in RPMI/DMEM without Phenol Red (Invitrogen, 11835030) and 10% charcoal-dextran stripped FBS (Gemini BioProducts, 100-119) for 72 h. Cells were then stimulated with 10 nM DHT for the specific time points.
Total RNA was isolated from cells using miRNeasy Mini Kit (Qiagen, 74106) and cDNA was synthesized from 1 μg total RNA using SuperScriptIV (Life Technologies, 18090200). qRT-PCR was performed using Fast SYBR Master Mix (Life Technologies, 4385617) or Taqman Fast Advance MMIX (Life Technologies, 4444964), and analyzed on QuantStudio3 (Applied Biosystems, USA). The target mRNA expression was quantified using ΔΔCt method, as normalized to GAPDH transcript levels. Primers were designed using Primer3 Input (version 0.4.0) (bioinfo.ut.ee/primer3-0.4.0/primer3) and synthesized by Integrated DNA Technologies.

Assay [2] concerns AR-positive LNCaP and VCaP cells. Kind of assay: Annexin V-FITC apoptosis analysis. How it is done:
(§1) Apoptosis induction was quantified using the Annexin-V and FITC Apoptosis Kit, as per manufacturer's instructions. Briefly LNCaP, VCaP, DU145 and PC3 cells were plated at a density of 5×10^5 cells per well in a 6-well culture plate. After subsequent treatments, the cells were harvested following incubation with a staining solution containing 10 μL propidium iodide and 5 μL Annexin for 10 min and analyzed by flow cytometry (BD FACS Aria II, BD Biosciences, San Jose).

For assay [3], the system named is AR-negative PC3 and DU145 cells. Kind of assay: Annexin V-FITC apoptosis analysis. How it is done: as §1

Consider `CN(C)C/C=C/C(=O)Nc1ccc(C(=O)Nc2cccc(Nc3ncc(Cl)c(-c4c[nH]c5ccccc45)n3)c2)cc1` [THZ1], for which, in assay [1] (200 nM THZ1, 24 h), the PSA result is given as “reduced PSA”; the “apoptosis (cleaved PARP, cleaved caspase-3)” value is “increased apoptosis”; the p-MED1 result was “loss of p-MED1”. For the same compound, in assay [1] (enzalutamide plus 50 nM THZ1), the “growth (colony formation)” value is on record as “growth inhibition”. In the assay on AR target genes, the “DHT-induced AR target gene expression” value was “phenocopied the reduction in DHT-induced gene expression”. The apoptosis result in assay [2] is recorded as “induced robust apoptosis”. In addition, the apoptosis result in assay [3] is “not observed”.

For the origin of these results see patent publication US12678438B2, “Treatment of cancer with CDK inhibitors” (THE TRUSTEES OF THE UNIVERSITY OF PENNSYLVANIA, priority 2019, dated 2026).
